The values that follow come from patent US20200079765A1, “SUBSTITUTED HETEROARYL PYRROLONES AND SALTS THEREOF AND USE THEREOF AS HERBICIDAL ACTIVE SUBSTANCES” (Bayer CropScience Aktiengesellschaft, priority 2016, published 2020).

Holding throughout (assay): Post-emergence herbicidal action (Experimental Part 1, A)
What all share (format): in vivo

The subject of one experiment is Alopecurus myosuroides. The following applies: about 3 weeks after treatment, 100% = plants have died, 0% = like control plants. Here is the method: (§1) Seeds of monocotyledonous and dicotyledonous weeds and crop plants were placed in sandy loam in plastic or wood-fiber pots, covered with soil and cultivated in a greenhouse under controlled growth conditions. 2 to 3 weeks after sowing, the test plants were treated at the one-leaf stage. The compounds of the invention, formulated in the form of wettable powders (WP) or as emulsion concentrates (EC), were then sprayed onto the green parts of the plants as aqueous suspension or emulsion with addition of 0.5% additive at a water application rate of 600 l/ha (converted). After the test plants had been kept in the greenhouse under optimum growth conditions for about 3 weeks, the activity of the preparations was rated visually in comparison to untreated controls. For example, 100% activity=the plants have died, 0% activity=like control plants. Tables A1 to A14 below show the effects of selected compounds of the general formula (I) according to Tables I.1 to I.116 on various harmful plants and an application rate corresponding to 1280 g/ha or 320 g/ha, which were obtained by the experimental procedure mentioned above.

A further experiment deals with Echinochloa crus-galli. Conditions: about 3 weeks after treatment, 100% = plants have died, 0% = like control plants. On the procedure:
as §1

Another experiment deals with Avena fatua. The following applies: rated visually after about 3 weeks. On the procedure:
as §1

A further experiment deals with Ipomoea purpurea. Conditions: rated visually after about 3 weeks. Here is the method: as §1
The test system of another experiment is Hordeum murinum. The following applies: application rate 1280 g/ha, rated visually after about 3 weeks. On the procedure:
as §1

The subject of the next experiment is Veronica persica. The following applies: application rate 1280 g/ha, about 3 weeks after treatment, 100% = plants have died, 0% = like control plants. Here is the method:
as §1

In another experiment the test system is Setaria viridis. The following applies: about 3 weeks after treatment, 100% = plants have died, 0% = like control plants. On the procedure: as §1
The subject of the next experiment is Amaranthus retroflexus. Conditions: about 3 weeks after treatment, 100% = plants have died, 0% = like control plants. Here is the method:
as §1

The subject of a further experiment is Abutilon theophrasti. Conditions: about 3 weeks after treatment, 100% = plants have died, 0% = like control plants. On the procedure:
as §1

The next experiment deals with Matricaria inodora. The following applies: rated visually after about 3 weeks. Here is the method:
as §1

For a further experiment, the system named is Polygonum convolvulus. Conditions: rated visually after about 3 weeks. Here is the method: as §1
The subject of the next experiment is Stellaria media. Conditions: rated visually after about 3 weeks. On the procedure:
as §1

A further experiment relates to Viola tricolor. Conditions: rated visually after about 3 weeks. On the procedure: as §1
The subject of another experiment is Lolium rigidum. Conditions: application rate 1280 g/ha, rated visually after about 3 weeks. Here is the method:
as §1

Structures are written as SMILES.

For `CC1=CC(=O)N(c2cc(C(C)(C)C)on2)C1O` (centres unmarked) [I.1-162, 5-Hydroxy-4-methyl-1-(5-tert-butyl-1,2-isoxazol-3-yl)-1,5-dihydro-2H-pyrrol-2-one], the “herbicidal activity on Alopecurus myosuroides (visual rating vs untreated controls)” value amounted to 90% with Alopecurus myosuroides (application rate 320 g/ha) and 100% with Alopecurus myosuroides (application rate 1280 g/ha). Also, the “herbicidal activity on Echinochloa crus-galli (visual rating vs untreated controls)” value in the experiment on Echinochloa crus-galli (application rate 320 g/ha) and with Echinochloa crus-galli (application rate 1280 g/ha) was 100% each time. The “Avena fatua, herbicidal activity” value is 90% in the experiment on Avena fatua (application rate 320 g/ha) and 100% in the experiment with Avena fatua (application rate 1280 g/ha). The “Ipomoea purpurea, herbicidal activity” value in the experiment with Ipomoea purpurea (application rate 320 g/ha) and in the experiment on Ipomoea purpurea (application rate 1280 g/ha) was 100% each time. In addition, the “Hordeum murinum, herbicidal activity” value in the experiment with Hordeum murinum came out at 100%. Moreover, the “herbicidal activity on Veronica persica (visual rating vs untreated controls)” value in the experiment on Veronica persica is 100%. Further, the “herbicidal activity on Setaria viridis (visual rating vs untreated controls)” value in the experiment with Setaria viridis (application rate 320 g/ha) and in the experiment on Setaria viridis (application rate 1280 g/ha) was 100% throughout. Besides, the “herbicidal activity on Amaranthus retroflexus (visual rating vs untreated controls)” value with Amaranthus retroflexus (application rate 320 g/ha) and in the experiment with Amaranthus retroflexus (application rate 1280 g/ha) was 100% throughout. Besides, the “herbicidal activity on Abutilon theophrasti (visual rating vs untreated controls)” value in the experiment with Abutilon theophrasti (application rate 320 g/ha) and with Abutilon theophrasti (application rate 1280 g/ha) was 100% each time. Further, the “Matricaria inodora, herbicidal activity” value with Matricaria inodora (application rate 320 g/ha) and with Matricaria inodora (application rate 1280 g/ha) was 100% in each case. Moreover, the “Polygonum convolvulus, herbicidal activity” value with Polygonum convolvulus (application rate 320 g/ha) and in the experiment on Polygonum convolvulus (application rate 1280 g/ha) was 100% throughout. The “Stellaria media, herbicidal activity” value in the experiment with Stellaria media (application rate 320 g/ha) and in the experiment with Stellaria media (application rate 1280 g/ha) was 100% throughout. The “Viola tricolor, herbicidal activity” value in the experiment with Viola tricolor (application rate 320 g/ha) and with Viola tricolor (application rate 1280 g/ha) was 100% each time.

With `CCC(=O)OC1C(C)=CC(=O)N1c1cc(C(C)(C)C)on1` (centres unmarked) [I.5-162], the “herbicidal activity on Alopecurus myosuroides (visual rating vs untreated controls)” value worked out at 90% in the experiment with Alopecurus myosuroides (application rate 320 g/ha) and 100% in the experiment with Alopecurus myosuroides (application rate 1280 g/ha). For the same molecule, in the experiment with Lolium rigidum, the “Lolium rigidum, herbicidal activity” value is 90%. Besides, the “herbicidal activity on Echinochloa crus-galli (visual rating vs untreated controls)” value in the experiment with Echinochloa crus-galli (application rate 1280 g/ha) is on record as 100%. The “Avena fatua, herbicidal activity” value in the experiment on Avena fatua (application rate 1280 g/ha) is 100%. Also, the “Ipomoea purpurea, herbicidal activity” value with Ipomoea purpurea (application rate 1280 g/ha) stood at 90%. Further, in the experiment with Hordeum murinum, the “Hordeum murinum, herbicidal activity” value was 100%. The “herbicidal activity on Veronica persica (visual rating vs untreated controls)” value in the experiment with Veronica persica is reported as 100%. For the same molecule, the “herbicidal activity on Setaria viridis (visual rating vs untreated controls)” value in the experiment with Setaria viridis (application rate 320 g/ha) and in the experiment with Setaria viridis (application rate 1280 g/ha) was 100% in each case. Besides, the “herbicidal activity on Amaranthus retroflexus (visual rating vs untreated controls)” value in the experiment with Amaranthus retroflexus (application rate 1280 g/ha) came to 100%. For the same molecule, the “herbicidal activity on Abutilon theophrasti (visual rating vs untreated controls)” value in the experiment on Abutilon theophrasti (application rate 320 g/ha) and in the experiment on Abutilon theophrasti (application rate 1280 g/ha) was 100% in each case. The “Matricaria inodora, herbicidal activity” value with Matricaria inodora (application rate 1280 g/ha) worked out at 100%. Also, the “Polygonum convolvulus, herbicidal activity” value in the experiment on Polygonum convolvulus (application rate 320 g/ha) and in the experiment with Polygonum convolvulus (application rate 1280 g/ha) was 100% throughout. Moreover, the “Stellaria media, herbicidal activity” value with Stellaria media (application rate 320 g/ha) and with Stellaria media (application rate 1280 g/ha) was 100% in each case. Further, the “Viola tricolor, herbicidal activity” value in the experiment with Viola tricolor (application rate 320 g/ha) and with Viola tricolor (application rate 1280 g/ha) was 100% each time.
